Tests used:
[1] = target: T1, P2Y purinoceptor 14 (Homo sapiens, UniProt Q15391)
T1 sequence (Q15391 whole entry): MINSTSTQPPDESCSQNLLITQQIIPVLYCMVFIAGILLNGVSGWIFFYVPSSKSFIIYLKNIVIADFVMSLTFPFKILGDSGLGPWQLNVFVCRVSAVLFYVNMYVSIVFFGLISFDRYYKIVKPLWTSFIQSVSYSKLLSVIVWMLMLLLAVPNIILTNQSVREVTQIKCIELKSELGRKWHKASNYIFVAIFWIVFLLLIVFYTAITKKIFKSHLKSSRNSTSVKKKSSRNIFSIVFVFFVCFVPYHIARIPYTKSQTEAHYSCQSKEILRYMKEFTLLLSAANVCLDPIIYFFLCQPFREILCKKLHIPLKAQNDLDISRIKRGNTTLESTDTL
Description: Displacement of MRS4174 from human P2Y14R expressed in CHO cells preincubated for 30 mins followed by MRS4174 addition measured after 30 mins by flow cytometric method

[2] = target: Sodium-dependent noradrenaline transporter (Homo sapiens, UniProt P23975); test: Displacement of [3H]-Nisoxetine from human NET expressed in HEK293 cell membranes after 90 mins by scintillation counting method
Chain of Sodium-dependent noradrenaline transporter (P23975 whole entry): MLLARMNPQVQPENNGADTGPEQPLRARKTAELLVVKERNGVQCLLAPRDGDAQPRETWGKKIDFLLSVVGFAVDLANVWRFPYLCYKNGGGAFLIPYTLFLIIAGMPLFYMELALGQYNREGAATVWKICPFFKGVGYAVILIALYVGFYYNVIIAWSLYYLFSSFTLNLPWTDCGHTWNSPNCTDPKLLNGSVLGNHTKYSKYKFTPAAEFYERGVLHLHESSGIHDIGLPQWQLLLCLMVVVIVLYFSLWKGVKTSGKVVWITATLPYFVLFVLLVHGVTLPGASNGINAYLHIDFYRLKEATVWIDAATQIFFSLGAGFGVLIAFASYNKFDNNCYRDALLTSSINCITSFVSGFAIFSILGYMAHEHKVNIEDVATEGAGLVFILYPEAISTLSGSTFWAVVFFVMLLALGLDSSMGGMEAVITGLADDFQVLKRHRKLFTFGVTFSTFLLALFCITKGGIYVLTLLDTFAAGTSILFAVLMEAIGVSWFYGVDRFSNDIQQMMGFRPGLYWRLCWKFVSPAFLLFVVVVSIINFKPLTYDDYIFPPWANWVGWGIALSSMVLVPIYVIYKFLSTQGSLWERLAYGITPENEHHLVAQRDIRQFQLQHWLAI

Compound | IC50 [1] | Ki [2]
O=C(O)c1cc(-c2ccc(CN3CCNCC3)s2)cc(-n2cc(-c3ccc(C(F)(F)F)cc3)nn2)c1 | 1.96 µM | 
CNC(=O)c1ccc(-c2cc(C(=O)O)cc(-n3cc(-c4ccc(C(F)(F)F)cc4)nn3)c2)cc1 | 0.563 µM | 
O=C(O)c1cc(O)cc(-n2cc(-c3ccc(C(F)(F)F)cc3)nn2)c1 | 16.4 µM | 
CC(C)(C)OC(=O)NCCNS(=O)(=O)c1ccc(-c2cc(C(=O)O)cc(-n3cc(-c4ccc(C(F)(F)F)cc4)nn3)c2)s1 | 5.92 µM | 
NCCCCNS(=O)(=O)c1ccc(-c2cc(C(=O)O)cc(-n3cc(-c4ccc(C(F)(F)F)cc4)nn3)c2)s1 | 2.18 µM | 
NCCCNC(=O)c1ccc(-c2cc(C(=O)O)cc(-n3cc(-c4ccc(C(F)(F)F)cc4)nn3)c2)o1 | 10.9 µM | 
O=C(O)c1cc(O)c2ccc(-c3ccc(C(F)(F)F)cc3)cc2c1 |  | 5.8 µM
CC(C)(C)OC(=O)N1CCN(C(=O)c2ccc(-c3cc(C(=O)O)cc(-n4cc(-c5ccc(C(F)(F)F)cc5)nn4)c3)s2)CC1 | 53 µM | 
CC(C)(C)OC(=O)N1CCN(Cc2ccc(-c3cc(C(=O)O)cc(-n4cc(-c5ccc(C(F)(F)F)cc5)nn4)c3)s2)CC1 | 67.2 µM | 
CC(C)(C)OC(=O)N1CCN(S(=O)(=O)c2ccc(-c3cc(C(=O)O)cc(-n4cc(-c5ccc(C(F)(F)F)cc5)nn4)c3)cc2)CC1 | > 50 µM | 
NCCCNC(=O)c1cc(-c2cc(C(=O)O)cc(-n3cc(-c4ccc(C(F)(F)F)cc4)nn3)c2)cs1 | 1.75 µM | 
FC(F)(F)c1ccc(-c2cn(-c3cc(-c4ccc(C5CCNCC5)cc4)cc(-c4nnn[nH]4)c3)nn2)cc1 | 0.958 µM | 
NCCCNC(=O)c1csc(-c2cc(C(=O)O)cc(-n3cc(-c4ccc(C(F)(F)F)cc4)nn3)c2)c1 | 0.735 µM | 
NC(=O)c1ccc(-c2cc(C(=O)O)cc(-n3cc(-c4ccc(C(F)(F)F)cc4)nn3)c2)cn1 | 1.41 µM | 
CC(C)(C)NC(=O)c1ccc(-c2cc(C(=O)O)cc(-n3cc(-c4ccc(C(F)(F)F)cc4)nn3)c2)cc1 | 7.53 µM | 
NC(=O)c1ccc(-c2cc(-c3nnn[nH]3)cc(-n3cc(-c4ccc(C(F)(F)F)cc4)nn3)c2)cc1 | 2.43 µM | 
CC(C)(C)NC(=O)c1ccc(-c2cc(-c3nnn[nH]3)cc(-n3cc(-c4ccc(C(F)(F)F)cc4)nn3)c2)cc1 | 20.7 µM | 
CC(C)(C)OC(=O)N1CCN(S(=O)(=O)c2ccc(-c3cc(C(=O)O)cc(-n4cc(-c5ccc(C(F)(F)F)cc5)nn4)c3)s2)CC1 | 54.7 µM | 
NCCNS(=O)(=O)c1ccc(-c2cc(C(=O)O)cc(-n3cc(-c4ccc(C(F)(F)F)cc4)nn3)c2)s1 | 2.26 µM | 
CC(C)(C)OC(=O)NCCCCNS(=O)(=O)c1ccc(-c2cc(C(=O)O)cc(-n3cc(-c4ccc(C(F)(F)F)cc4)nn3)c2)s1 | 13.6 µM | 
NC(=O)c1ccc(-c2cc(C(=O)O)cc(-n3cc(-c4ccc(C(F)(F)F)cc4)nn3)c2)o1 | 3.11 µM | 

From ChEMBL document CHEMBL4184336, “Structure-Guided Modification of Heterocyclic Antagonists of the P2Y14 Receptor” (J Med Chem, 2018)
